Data reported in ChEMBL document CHEMBL4622883, “Bisbenzylisoquinoline alkaloids and P-glycoprotein function: A structure activity relationship study” (Bioorg Med Chem, 2020).

Experiments:
Type in all cases: cell-based
[1] = target: T1, ATP-dependent translocase ABCB1 (Homo sapiens, UniProt P08183); test: Inhibition of P-glycoprotein-mediated Rhodamine-123 efflux in human MOLT4/DNR cells assessed as inhibition of P-glycoprotein efflux function at 10 uM incubated for 1 hr by flow cytometry
[2] = target: T1, ATP-dependent translocase ABCB1; test: Inhibition of P-glycoprotein-mediated Rhodamine-123 efflux in human MOLT4/DNR cells assessed as inhibition of P-glycoprotein efflux function at 1 uM incubated for 1 hr by flow cytometry
[3] = target: T1, ATP-dependent translocase ABCB1; test: Inhibition of P-glycoprotein-mediated Rhodamine-123 efflux in human MOLT4/DNR cells assessed as Rhodamine-123 accumulation incubated for 1 hr by flow cytometry
[4] = target: T1, ATP-dependent translocase ABCB1; test: Inhibition of P-glycoprotein-mediated Rhodamine-123 efflux in human MOLT4/DNR cells assessed as inhibition of P-glycoprotein efflux function at 0.3 uM incubated for 1 hr by flow cytometry

T1 sequence (P08183 whole entry): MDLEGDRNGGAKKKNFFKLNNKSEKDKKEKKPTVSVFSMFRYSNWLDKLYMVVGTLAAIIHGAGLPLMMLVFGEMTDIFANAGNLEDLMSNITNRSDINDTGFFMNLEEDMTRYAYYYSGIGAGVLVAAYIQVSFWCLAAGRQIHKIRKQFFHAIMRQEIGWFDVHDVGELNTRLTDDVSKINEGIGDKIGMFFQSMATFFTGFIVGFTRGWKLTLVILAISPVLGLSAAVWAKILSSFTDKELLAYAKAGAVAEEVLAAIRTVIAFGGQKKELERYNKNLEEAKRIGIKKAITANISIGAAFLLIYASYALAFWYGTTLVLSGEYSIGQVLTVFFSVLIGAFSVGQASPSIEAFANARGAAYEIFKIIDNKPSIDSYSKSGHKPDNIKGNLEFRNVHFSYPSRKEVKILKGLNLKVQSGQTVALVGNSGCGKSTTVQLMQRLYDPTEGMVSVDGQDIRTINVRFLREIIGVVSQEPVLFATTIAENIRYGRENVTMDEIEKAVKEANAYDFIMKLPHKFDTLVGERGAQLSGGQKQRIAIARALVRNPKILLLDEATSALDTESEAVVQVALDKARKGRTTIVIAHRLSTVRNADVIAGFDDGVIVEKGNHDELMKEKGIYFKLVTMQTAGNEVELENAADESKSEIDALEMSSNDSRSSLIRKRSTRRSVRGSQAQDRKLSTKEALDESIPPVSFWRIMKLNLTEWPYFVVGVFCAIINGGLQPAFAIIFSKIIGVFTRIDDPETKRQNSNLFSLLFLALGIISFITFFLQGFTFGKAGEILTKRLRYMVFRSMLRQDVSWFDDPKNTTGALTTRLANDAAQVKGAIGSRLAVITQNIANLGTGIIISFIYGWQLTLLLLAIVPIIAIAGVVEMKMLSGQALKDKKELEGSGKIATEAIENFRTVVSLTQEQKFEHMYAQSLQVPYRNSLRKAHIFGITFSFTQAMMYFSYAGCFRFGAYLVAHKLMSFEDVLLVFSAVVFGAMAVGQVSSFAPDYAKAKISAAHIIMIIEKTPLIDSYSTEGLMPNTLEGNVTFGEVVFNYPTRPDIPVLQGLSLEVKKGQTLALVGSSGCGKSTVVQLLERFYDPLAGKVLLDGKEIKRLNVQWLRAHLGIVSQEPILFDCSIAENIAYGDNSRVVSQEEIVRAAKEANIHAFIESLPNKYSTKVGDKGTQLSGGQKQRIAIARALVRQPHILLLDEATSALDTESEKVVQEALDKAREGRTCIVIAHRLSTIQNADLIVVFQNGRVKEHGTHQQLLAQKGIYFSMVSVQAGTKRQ

SMILES | inhibition (INH) [1] | inhibition (INH) [2] | inhibition (INH) [3] | inhibition (INH) [4]
COc1cc2c(cc1OC)[C@@H](Cc1ccc(Oc3cc(C[C@@H]4c5cc(OC)c(OC)cc5CCN4C)ccc3O)cc1)N(C)CC2 [DAURICINE] | Active | – | – | –
COc1ccc2cc1Oc1ccc(cc1)C[C@H]1c3cc(c(OC)cc3CCN1C)Oc1c(O)c(OC)cc3c1[C@H](C2)N(C)CC3 [FANGCHINOLINE] | Active | Not Active | – | –
COc1ccc2cc1Oc1ccc(cc1)C[C@H]1c3c(cc4c(c3Oc3cc5c(cc3OC)CCN(C)[C@@H]5C2)OCO4)CCN1C [CEPHARANTHINE] | Active | Not Active | – | –
COc1cc2c(cc1OC)[C@@H](Cc1ccc(O)cc1)N(C)CC2 | Active | – | – | –
COc1ccc2cc1Oc1ccc(cc1)C[C@H]1c3cc(c(OC)cc3CCN1C)Oc1c(OC)c(OC)cc3c1[C@H](C2)N(C)CC3 [FANCHININ] | Active | Active | Dose-dependent effect | Active
COc1ccc2cc1Oc1ccc(cc1)C[C@H]1c3cc(c(OC)cc3CCN1C)Oc1c(OC)c(OC)cc3c1[C@@H](C2)N(C)CC3 | Active | Not Active | – | Not Active
COc1cc2c3cc1Oc1c(OC)c(OC)cc4c1[C@@H](Cc1ccc(O)c(c1)Oc1ccc(cc1)C[C@@H]3N(C)CC2)N(C)CC4 [BERBAMINE] | Active | Not Active | – | Not Active
